# Reference: patent US10952974B2, “Delivery of bioactive, nanoencapsulated antioxidants” (Board of Supervisors of Louisiana State University and …, priority 2014, dated 2021)
# Where two headings read alike, the source gives them in different places.
# Experiments:
# [1] = Solubility of lutein in water and organic solvents; assay type: physicochemical; conditions: chloroform vs ethanol
# [2] = test system: selenite-induced cataract; experiment: Selenite-induced cataract in rat pups, first animal study; assay type: in vivo, Wistar albino rat
# Procedure: Four pregnant Wistar female albino rats were obtained from the Laboratory Animal Facility of the Iuliu Hatieganu University of Medicine and Pharmacy in Cluj-Napoca, Romania. Each female rat and its litter of pups were housed in plastic cages, on a 12 h lighting cycle, at constant temperature (22° C.) with free access to rat chow and tap water. At 12 days of age, the rat pups were randomized into seven groups as follows:
# Group 1 (selenite group, positive control): no exposure to lutein
# Group 2 (PLGA-NP-1) daily received orally, by gavage, 2.5 mg/kg PLGA-NP-lutein dispersed in a 0.5 mL emulsion of 30% olive oil+70% flour slurry, corresponding to a daily dose of 2.66 mg lutein/kg body mass. (The flour slurry, in turn, had been prepared by mixing 0.3 g flour in 1 ml water.)
# Group 3 (PLGA-NP-2) daily received orally, by gavage, 5 mg/kg PLGA-NP-lutein dispersed in 0.5 mL emulsion of 30% olive oil+70% flour slurry, corresponding to a daily dose of 5.32 mg lutein/kg body mass. (Flour slurry: identical to that used for Group 2
# Group 4 (lutein) daily received orally, by gavage, 0.00525 mg unmodified lutein dispersed in 0.5 mL emulsion of 30% olive oil+70% flour slurry, corresponding to a daily dose of 0.125 mg lutein/kg body mass. (Flour slurry: identical to that used for Group 2.)
# Group 5 (HG-PLGA-NP-1) was treated locally, once a day, with corneal application (1 drop in each eye) of 1 wt % PLGA-NP-lutein in the bioadhesive hydrogel of Example 19. (30 mg of lyophilized lutein-loaded PLGA NPs were dissolved in 3 ml of bioadhesive hydrogel. The volume of one drop of hydrogel was approx. 0.012 mL, with a density of 0.9444 g/mL.)
# Group 6 (HG-PLGA-NP-2) was treated locally, once a day, by corneal application (1 drop/in each eye) with 3% PLGA-NP-lutein in a bioadhesive hydrogel. (90 mg of lyophilized lutein-loaded PLGA NPs were dissolved in 3 ml of bioadhesive hydrogel. The volume of one drop of hydrogel was approx. 0.012 mL, with a density of 0.9444 g/mL.)
# Group 7 (negative control)—no exposure to selenite, and no lutein treatment.
# On day 13 post-partum, cataracts were induced in all animals in Groups 1-6 with a single, intraperitoneal injection of sodium selenite (Na2SeO3), 30 μmol/kg. Subsequently, the animals from groups 2-6 were treated daily, in accordance with the protocols described above. The lutein content of the PLGA-NPs (42.61 μg lutein/mg PLGA-NP) was assessed by UV-VIS spectrophotometry (450 nm) with an external standard calibration. On day 21 post-partum, cataract development was evaluated by slit-lamp examination. Eyes were scored into one of five stages: stage 0 (no cataract), stage 1 (slight nucleus opacity), stage 2 (mild nucleus opacity, a central while opacity occupying less than half the diameter of the nucleus), stage 3 (dense opacity, a central while opacity occupying more than half the diameter of the nucleus) and stage 4 (dense, white opacity over the whole nucleus). Statistics were performed in SPSS 14.0 for Windows and Excel. The variables were checked for normal distribution with the Shapiro-Wilk test. Groups were compared with the Wilcoxon test. Statistical significance was set at p<0.05.
# [3] = cited from earlier work
# [4] = cited from earlier work; remark: listed apart in the source
# [5] = oral gavage daily, 0.125 mg lutein/kg, day 21 postpartum
smiles,measurement,setting,value
"CC1=C[C@H](O)CC(C)(C)[C@H]1/C=C/C(C)=C/C=C/C(C)=C/C=C/C=C(C)/C=C/C=C(C)/C=C/C1=C(C)C[C@@H](O)CC1(C)C [Lutein, β,ε-carotene-3,3′-diol]",solubility in chloroform relative to solubility in ethanol,[1],20 times
same,Cataract stage Mean ± SD,[2]; [5],3.2 ± 0.8
same,Stage 0,[2]; [5],0 no. animals
same,Stage 1,[2]; [5],0 no. animals
same,Stage 2,[2]; [5],1 no. animals
same,Stage 3,[2]; [5],2 no. animals
same,Stage 4,[2]; [5],2 no. animals
same,reduction in cataract development vs selenite group,[2]; treated orally,small (and statistically insignificant) reduction in cataract development
same,Stability,[3]; stored at −20° C. under a nitrogen atmosphere,Stable if stored at −20 °C under a nitrogen
same,Stability,[3]; to light and oxygen,Unstable to light and oxygen;
same,Solubility,[4]; in 2-Propanol,400 µg/mL
same,Solubility,[4]; in Acetone,800 µg/mL
same,Solubility,[4]; in Acetonitrile,100 µg/mL
same,Solubility,[4]; in Benzene,600 µg/mL
same,Solubility,[4]; in Chloroform,6000 µg/mL
same,Solubility,[4]; in Cyclohexane,50 µg/mL
same,Solubility,[4]; in Cyclohexanone,4000 µg/mL
same,Solubility,[4]; in Dimethyl formamide,1000 µg/mL
same,Solubility,[4]; in Ethyl acetate,800 µg/mL
same,Solubility,[4]; in Ethyl alcohol,300 µg/mL
same,Solubility,[4]; in Ethyl ether,2000 µg/mL
same,Solubility,[4]; in Hexane,20 µg/mL
same,Solubility,[4]; in Methyl alcohol,200 µg/mL
same,Solubility,[4]; in Methyl tert butyl ether,2000 µg/mL
same,Solubility,[4]; in Tetrahydrofuran,8000 µg/mL
same,Solubility,[4]; in Toluene,500 µg/mL
same,Solubility in water,[4],Insoluble
same,Solubility in water,[4]; listed as lutein,water-insoluble
